{"source": "patent US7868139B2", "about": "“Compositions and methods for the identification and treatment of immune-mediated inflammatory diseases” (UAB Research Foundation, priority 2006, dated 2011)", "key": {"BMDC": {"test_system": "BMDC", "assay": "Maturation of LPS-stimulated BMDC (costimulatory molecules, cytokines)", "format": "cell-based, mouse", "conditions": "PSI-pulsed BMDC stimulated with LPS"}, "DO11.10 CD4^+ T cells": {"test_system": "DO11.10 CD4^+ T cells", "assay": "T cell cytokine assays (ELISA of culture supernatants)", "format": "cell-based, mouse", "conditions": "PSI-pretreated, OVA peptide-pulsed BMDC", "description": "[…] The culture supernatants (SN) were collected at different times and pooled together for assay. SN collected after 24 hr of culture were used for IL-2 assay and SN collected at 72 h of culture were used for IL-10, IL-4, and IFNγ assays. The cytokine content in SN was determined by ELISA as previously described by Cong et al. (Cong et al., CD4+ T cells reactive to enteric bacterial antigens in spontaneously colitic C3H/HeJBir mice: increased T helper cell type 1 response and ability to transfer disease. Journal of Experimental Medicine 187:855 (1998)."}, "NF-κB p65": {"test_system": "NF-κB p65", "assay": "Measurement of nuclear NF-κB p65 in BMDC", "format": "cell-based, mouse", "conditions": "1 μg/ml LPS plus 1 μM PSI for 60 min, compared to control", "description": "Measurement of nuclear NF-κB—BMDC were treated with media alone, 1 μg/ml LPS, or LPS plus 1 μM PSI for 60 min. The nuclear extracts were made by using TransFactor Extraction Kit (Clontech Laboratories, Inc., Palo Alto, Calif.) based on the protocol recommended by the manufacturer. NF-κB p65 was measured by using Mercury TransFactor Kits (Clontech Labs, Inc., Palo Alto, Calif.) according to manufacturer's protocol."}, "[1]": {"test_system": "DO11.10.RAG2−/− CD4^+ T cells", "assay": "T cell proliferation assay with PSI-pretreated, OVA peptide-pulsed BMDC", "format": "cell-based, mouse", "conditions": "BMDC pretreated with 1 μM PSI 4 hrs, then OVA peptide 20 hrs; p<0.005", "description": "Generation of PSI-APC Treg cells—BMDC generated from BALB/c mice were treated with 1 μM PSI dissolved in DMSO for 4 hrs and then 5 μg/ml OVA peptide for additional 20 hrs at 1×10^6/ml. After washing twice, the pretreated BMDC were added at 1×10^5/ml into cultures of 1×10^6 freshly isolated CD4^+ T cells from DO11.10.RAG2^−/− mice. Seven days later, the CD4^+ T cells were re-isolated with CD4-magnet beads (Pharmingen, San Diego, Calif.) and used to test for regulatory activity (PSI-APC Treg). Freshly isolated CD4^+ T cells from DO11.10.RAG2^−/− mice were also cultured with 5 μg/ml OVA peptide-pulsed BMDC as control, and used as memory T cells (Them).\nAfter 4 d of incubation, 0.5 μCi of ^3H-thymidine was added to each culture for the last 18 hr of the incubation period. The cells were harvested on glass fiber filters on a PHD cell harvested (Cambridge Technology, Watertown, Mass.) and proliferation was assessed as the amount of incorporation of ^3H-thymidine into cell DNA, as measured by beta scintillation counting of the harvested samples. Data are expressed as CPM±SD."}, "mice": {"test_system": "mice", "conditions": "mouse, in vivo"}, "Splenic CD4^+ T cells": {"test_system": "Splenic CD4^+ T cells", "assay": "Antigen-specific proliferation of splenic CD4+ T cells (3H-thymidine)", "format": "cell-based, mouse"}}, "note": "“Also recorded” adds a separate entry of the source. Peptide text beside a SMILES is read from it. * marks the point of attachment. Cbz = O=C(OCc1ccccc1)*; OtBu = CC(C)(C)O*"}
{"molecule": "CC[C@H](C)[C@H](NC(=O)OCc1ccccc1)C(=O)N[C@@H](CCC(=O)OC(C)(C)C)C(=O)N[C@@H](C)C(=O)N[C@H](C=O)CC(C)C", "note": "[PSI, benzyloxycarbonyl-isoleucyl-glutamyl(O-tert-butyl)-alanyl-leucinal] (Cbz-IE(OtBu)AL-aldehyde)", "values": [{"measurement": "IL-10 production by BMDC", "setting": "BMDC", "result": "not affected"}, {"measurement": "IL-12p70 cytokine production", "setting": "BMDC", "result": "did not upregulate"}, {"measurement": "expression of costimulatory molecules CD40, CD86 and MHC class II", "setting": "BMDC", "result": "did not upregulate"}, {"measurement": "T cell IL-4 production", "setting": "DO11.10 CD4^+ T cells", "result": "no IL-4 production"}, {"measurement": "reduction of T cell IFNα production", "setting": "DO11.10 CD4^+ T cells", "result": 81, "unit": "%"}, {"measurement": "reduction of T cell IL-2 production", "setting": "DO11.10 CD4^+ T cells", "result": 89, "unit": "%"}, {"measurement": "reduction of T cell IL-10 production", "setting": "DO11.10 CD4^+ T cells", "result": 79, "unit": "%"}, {"measurement": "NF-κB p65 in nuclear extracts", "setting": "NF-κB p65", "result": "inhibited BMDC NF-κβ activation; also recorded: reduced levels of NF-κB p65"}, {"measurement": "naïve CD4+ T cell proliferation to OVA peptide-pulsed BMDC", "setting": "[1]", "result": "inhibited T cell proliferation and cytokine production; also recorded: greatly decreased"}]}
{"molecule": "cholera toxin [CT]", "values": [{"measurement": "intestinal IgA response to OVA", "setting": "mice", "result": "strong intestinal IgA response"}, {"measurement": "serum IgG response to OVA", "setting": "mice", "result": "strong serum IgG response to OVA"}]}
{"molecule": "ovalbumin (protein, UniProt P01012 2-386, looked up, internal positive control antigen; exogenous foreign neoantigen) Ovalbumin: GSIGAASMEFCFDVFKELKVHHANENIFYCPIAIMSALAMVYLGAKDSTRTQINKVVRFDKLPGFGDSIEAQCGTSVNVHSSLRDILNQITKPNDVYSFSLASRLYAEERYPILPEYLQCVKELYRGGLEPINFQTAADQARELINSWVESQTNGIIRNVLQPSSVDSQTAMVLVNAIVFKGLWEKAFKDEDTQAMPFRVTEQESKPVQMMYQIGLFRVASMASEKMKILELPFASGTMSMLVLLPDEVSGLEQLESIINFEKLTEWTSSNVMEERKIKVYLPRMKMEEKYNLTSVLMAMGITDVFSSSANLSGISSAESLKISQAVHAAHAEINEAGREVVGSAEAGVDAASVSEEFRADHPFLFCIKHIATNAVLFFGRCVSP", "values": [{"measurement": "intestinal IgA response to OVA", "setting": "mice", "result": "virtually no intestinal IgA to OVA"}, {"measurement": "serum IgG response to OVA", "setting": "mice", "result": "no serum IgG response to OVA"}, {"measurement": "median stimulation index", "setting": "Splenic CD4^+ T cells; post immunization (day 35), 50 μg/ml antigen", "result": 17.1}, {"measurement": "T cell proliferative response, stimulation index (SI)", "setting": "Splenic CD4^+ T cells; unimmunized mice", "result": "< 3"}]}
